The results in this text go back to US9428499B2, “Heterocyclyl compounds as MEK inhibitors” (LUPIN LIMITED, priority 2012, dated 2016).

Each structure is given as a SMILES string.

For the test, the system named is ERK phosphorylation. Put plainly: Analysis of ERK phosphorylation (Alphascreen SureFire Phospho-ERK 1/2). The format is cell-based, human and mouse. To be noted: cells treated for 1 h; human melanoma cells, human and mouse colon cancer cells; read-out: Minimum concentration (nM) required for ≧80% inhibition of pERK. Here is the method:
This assay was carried out with human melanoma cells, human and mouse colon cancer cells. Cells were treated for 1 h with various concentrations of test compounds. ERK phosphorylation analysis was performed using the Alphascreen SureFire Phospho-ERK 1/2 Kit (Perkin Elmer), by following the manufacturer's instructions. % inhibition of ERK phosphorylation was determined as: 100−{(RFU test−RFU lysis buffer control)/(RFU vehicle treated control−RFU lysis buffer control)}×100. Percentage inhibition at concentrations of 0.01 nM, 0.03 nM, 0.1-0.9 nM, 1 nM to 3 nM, 4-100 nM, and >100 nM, for the stated examples is setworth here. The percentage inhibition at the above depicted concentrations for the compounds stated are given in the following groups.
On the technique in general: In Alpha technology, singlet oxygen from a donor bead excites a nearby acceptor bead.
`Cc1c(=O)n(C)c(Nc2ccc(I)cc2F)c2c(=O)[nH]c(=O)n(-c3cccc(C(=O)NC4(C(N)=O)CC4)c3)c12` [Compound 12, N-(1-carbamoylcyclopropyl)-3-(5-((2-fluoro-4-iodophenyl)amino)-6,8-dimethyl-2,4,7-trioxo-3,4,6,7-tetrahydropyrido[4,3-d]pyrimidin-1(2H)-yl)benzamide]: the IC80 was in the range of 4 to 100 nM.
With `Cc1c(=O)n(C)c(Nc2ccc(I)cc2F)c2c(=O)[nH]c(=O)n(-c3cccc(CCC(N)=O)c3)c12` [Compound 1, 3-(3-(5-((2-fluoro-4-iodophenyl)amino)-6,8-dimethyl-2,4,7-trioxo-3,4,6,7-tetrahydropyrido[4,3-d]pyrimidin-1(2H)-yl)phenyl)propanamide] the figure was 1 to 3 nM; with `Cc1c(=O)n(C)c(Nc2ccc(I)cc2F)c2c(=O)n(C)c(=O)n(-c3cccc(OCC(=O)NC4CC4)c3)c12` [Compound 41, N-cyclopropyl-2-(3-(5-((2-fluoro-4-iodophenyl)amino)-3,6,8-trimethyl-2,4,7-trioxo-3,4,6,7-tetrahydropyrido[4,3-d]pyrimidin-1(2H)-yl)phenoxy)acetamide], 0.1 to 0.9 nM; with `Cc1c(=O)n(C)c(Nc2ccc(I)cc2F)c2c(=O)n(C3CC3)c(=O)n(-c3cccc(CC(=O)N4CC(O)C4)c3)c12` [Compound 33, 3-cyclopropyl-5-((2-fluoro-4-iodophenyl)amino)-1-(3-(2-(3-hydroxyazetidin-1-yl)-2-oxoethyl)phenyl)-6,8-dimethylpyrido[4,3-d]pyrimidine-2,4,7(1H,3H,6H)-trione], 1 to 3 nM.
Turning to `Cc1c(=O)n(C)c(Nc2ccc(I)cc2F)c2c(=O)[nH]c(=O)n(-c3cccc(CC(=O)NC4CC4)c3)c12` [Compound 4, N-cyclopropyl-2-(3-(5-((2-fluoro-4-iodophenyl)amino)-6,8-dimethyl-2,4,7-trioxo-3,4,6,7-tetrahydropyrido[4,3-d]pyrimidin-1(2H)-yl)phenyl)acetamide], the IC80 is 1 to 3 nM.
As for `Cc1c(=O)n(C)c(Nc2ccc(I)cc2F)c2c(=O)n(C)c(=O)n(-c3cccc(C(=O)NC4(CO)CC4)c3)c12` [Compound 53, 3-(5-((2-fluoro-4-iodophenyl)amino)-3,6,8-trimethyl-2,4,7-trioxo-3,4,6,7-tetrahydropyrido[4,3-d]pyrimidin-1(2H)-yl)-N-(1-(hydroxymethyl)cyclopropyl)benzamide], the IC80 was 4 to 100 nM.
Consider `Cc1c(=O)n(C)c(Nc2ccc(I)cc2F)c2c(=O)n(C3CC3)c(=O)n(-c3cccc(C(O)C(N)=O)c3)c12` (stereo not drawn) [Compound 32, 2-(3-(3-cyclopropyl-5-((2-fluoro-4-iodophenyl)amino)-6,8-dimethyl-2,4,7-trioxo-3,4,6,7-tetrahydropyrido[4,3-d]pyrimidin-1(2H)-yl)phenyl)-2-hydroxyacetamide], for which the IC80 is 1 to 3 nM.
In the case of `CCn1c(=O)c2c(Nc3ccc(I)cc3F)n(C)c(=O)c(C)c2n(-c2cccc(C(=O)NC3CC3)c2)c1=O` [Compound 62, N-cyclopropyl-3-(3-ethyl-5-((2-fluoro-4-iodophenyl)amino)-6,8-dimethyl-2,4,7-trioxo-3,4,6,7-tetrahydropyrido[4,3-d]pyrimidin-1(2H)-yl)benzamide], the IC80 lay within 4 to 100 nM.
In the case of `Cc1c(=O)n(C)c(Nc2ccc(I)cc2F)c2c(=O)n(C)c(=O)n(-c3cccc(C(=O)N4CCS(=O)(=O)CC4)c3)c12` [Compound 65, 1-(3-(1,1-dioxidothiomorpholine-4-carbonyl)phenyl)-5-((2-fluoro-4-iodophenyl)amino)-3,6,8-trimethylpyrido[4,3-d]pyrimidine-2,4,7(1H,3H,6H)-trione], the IC80 lay in the range of 0.1 to 0.9 nM.
In the case of `Cc1c(=O)n(C)c(Nc2ccc(I)cc2F)c2c(=O)[nH]c(=O)n(-c3cccc(CC(=O)N(C)C)c3)c12` [Compound 10, 2-(3-(5-((2-fluoro-4-iodophenyl)amino)-6,8-dimethyl-2,4,7-trioxo-3,4,6,7-tetrahydropyrido[4,3-d]pyrimidin-1(2H)-yl)phenyl)-N,N-dimethylacetamide], the IC80 is 0.1 to 0.9 nM.
As for `Cc1c(=O)n(C)c(Nc2ccc(I)cc2F)c2c(=O)n(C3CC3)c(=O)n(-c3cccc(C(=O)N4CCS(=O)(=O)C4)c3)c12` [Compound 38, 3-cyclopropyl-1-(3-(1,1-dioxidothiazolidine-3-carbonyl)phenyl)-5-((2-fluoro-4-iodophenyl)amino)-6,8-dimethylpyrido[4,3-d]pyrimidine-2,4,7(1H,3H,6H)-trione], the IC80 lay in the range of 0.1 to 0.9 nM.
With `CCn1c(=O)c2c(Nc3ccc(I)cc3F)n(C)c(=O)c(C)c2n(-c2cccc(CCC(N)=O)c2)c1=O` [Compound 61, 3-(3-(3-ethyl-5-((2-fluoro-4-iodophenyl)amino)-6,8-dimethyl-2,4,7-trioxo-3,4,6,7-tetrahydropyrido[4,3-d]pyrimidin-1(2H)-yl)phenyl)propanamide], the IC80 was in the range of 1 to 3 nM.
The result for `Cc1c(=O)n(C)c(Nc2ccc(I)cc2F)c2c(=O)n(C)c(=O)n(-c3cccc(CC(=O)NC4COC4)c3)c12` [Compound 50, 2-(3-(5-((2-fluoro-4-iodophenyl)amino)-3,6,8-trimethyl-2,4,7-trioxo-3,4,6,7-tetrahydropyrido[4,3-d]pyrimidin-1(2H)-yl)phenyl)-N-(oxetan-3-yl)acetamide] reads 4 to 100 nM; that for `Cc1c(=O)n(C)c(Nc2ccc(I)cc2F)c2c(=O)[nH]c(=O)n(-c3cccc(C(=O)N4CCC(O)C4)c3)c12` (stereo not drawn) [Compound 22, 5-((2-fluoro-4-iodophenyl)amino)-1-(3-(3-hydroxypyrrolidine-1-carbonyl)phenyl)-6,8-dimethylpyrido[4,3-d]pyrimidine-2,4,7(1H,3H,6H)-trione], 4 to 100 nM; that for `Cc1c(=O)n(C)c(Nc2ccc(I)cc2F)c2c(=O)n(C3COC3)c(=O)n(-c3cccc(OCC(N)=O)c3)c12` [Compound 71, 2-(3-(5-((2-fluoro-4-iodophenyl)amino)-6,8-dimethyl-3-(oxetan-3-yl)-2,4,7-trioxo-3,4,6,7-tetrahydropyrido[4,3-d]pyrimidin-1(2H)-yl)phenoxy)acetamide], 4 to 100 nM.
As for `CNC(=O)COc1cccc(-n2c(=O)n(C)c(=O)c3c(Nc4ccc(I)cc4F)n(C)c(=O)c(C)c32)c1` [Compound 60, 2-(3-(5-((2-fluoro-4-iodophenyl)amino)-3,6,8-trimethyl-2,4,7-trioxo-3,4,6,7-tetrahydropyrido[4,3-d]pyrimidin-1(2H)-yl)phenoxy)-N-methylacetamide], the IC80 was 0.1 to 0.9 nM.
`Cc1c(=O)n(C)c(Nc2ccc(I)cc2F)c2c(=O)n(C)c(=O)n(-c3cccc(CC(=O)NC4CC4)c3)c12` [Compound 58, N-cyclopropyl-2-(3-(5-((2-fluoro-4-iodophenyl)amino)-3,6,8-trimethyl-2,4,7-trioxo-3,4,6,7-tetrahydropyrido[4,3-d]pyrimidin-1(2H)-yl)phenyl)acetamide]: the IC80 fell in the range of 1 to 3 nM.
As to `Cc1c(=O)n(C)c(Nc2ccc(I)cc2F)c2c(=O)n(C)c(=O)n(-c3cccc(CC(=O)N4CC(O)C4)c3)c12` [Compound 48, 5-((2-fluoro-4-iodophenyl)amino)-1-(3-(2-(3-hydroxyazetidin-1-yl)-2-oxoethyl)phenyl)-3,6,8-trimethylpyrido[4,3-d]pyrimidine-2,4,7(1H,3H,6H)-trione], the IC80 lay within 1 to 3 nM.
For the compound `Cc1c(=O)n(C)c(Nc2ccc(I)cc2F)c2c(=O)n(C3CC3)c(=O)n(-c3cccc(CCC(N)=O)c3)c12` [Compound 34, 3-(3-(3-cyclopropyl-5-((2-fluoro-4-iodophenyl)amino)-6,8-dimethyl-2,4,7-trioxo-3,4,6,7-tetrahydropyrido[4,3-d]pyrimidin-1(2H)-yl)phenyl)propanamide], the IC80 was in the range of 1 to 3 nM.
Turning to `Cc1c(=O)n(C)c(Nc2ccc(I)cc2F)c2c(=O)[nH]c(=O)n(-c3cccc(C(=O)N4CCC4)c3)c12` [Compound 3, 1-(3-(azetidine-1-carbonyl)phenyl)-5-((2-fluoro-4-iodophenyl)amino)-6,8-dimethylpyrido[4,3-d]pyrimidine-2,4,7(1H,3H,6H)-trione], the IC80 is 1 to 3 nM.
For `CNC(=O)CCc1cccc(-n2c(=O)n(C3CC3)c(=O)c3c(Nc4ccc(I)cc4F)n(C)c(=O)c(C)c32)c1` [Compound 36, 3-(3-(3-cyclopropyl-5-((2-fluoro-4-iodophenyl)amino)-6,8-dimethyl-2,4,7-trioxo-3,4,6,7-tetrahydropyrido[4,3-d]pyrimidin-1(2H)-yl)phenyl)-N-methylpropanamide], the IC80 lay within 1 to 3 nM.
For the compound `Cc1c(=O)n(C)c(Nc2ccc(I)cc2F)c2c(=O)n(C)c(=O)n(-c3cccc(C(=O)N4CCC4)c3)c12` [Compound 56, 1-(3-(azetidine-1-carbonyl)phenyl)-5-((2-fluoro-4-iodophenyl)amino)-3,6,8-trimethylpyrido[4,3-d]pyrimidine-2,4,7(1H,3H,6H)-trione], the IC80 is 1 to 3 nM.
For the compound `Cc1c(=O)n(C)c(Nc2ccc(I)cc2F)c2c(=O)n(C)c(=O)n(-c3cccc(C(C)(C)C(N)=O)c3)c12` [Compound 43, 2-(3-(5-((2-fluoro-4-iodophenyl)amino)-3,6,8-trimethyl-2,4,7-trioxo-3,4,6,7-tetra hydropyrido[4,3-d]pyrimidin-1(2H)-yl)phenyl)-2-methylpropanamide], the IC80 lay within 0.1 to 0.9 nM.
For `Cc1c(=O)n(C)c(Nc2ccc(I)cc2F)c2c(=O)n(C3CC3)c(=O)n(-c3cccc(OCC(=O)NC4CC4)c3)c12` [Compound 25, N-cyclopropyl-2-(3-(3-cyclopropyl-5-((2-fluoro-4-iodophenyl)amino)-6,8-dimethyl-2,4,7-trioxo-3,4,6,7-tetrahydropyrido[4,3-d]pyrimidin-1(2H)-yl)phenoxy)acetamide], the IC80 is 0.1 to 0.9 nM.
